Values joined by “and” are separate entries in the source; they are usually repeats but may differ in a detail not shown here. Equal entries are not always repeated. Where two headings read alike, the source gives them in different places.
Key:
[1] = test system: S. epidermidis ATCC 700296 (Se); test: MIC, broth microdilution, Se; assay type: cell-based; conditions: Staphylococcus epidermidis
Procedure: (§1) The broth microdilution method was utilized to determine MIC values of novel thiazole derivatives against different clinically important Gram-positive bacteria according to the guidelines outlined by the Clinical and Laboratory Standards Institute (CLSI) as reported in our recent papers.^1-5 The starting concentration of compounds for MIC determination was 64 μg/mL serially diluted down the wells and the MIC values were recorded in duplicates in three independent experiments on different days.

[2] = test system: Sa UAMS-1 MRSA ATCC 49230 (Sa UAMS); test: MIC, broth microdilution, Sa UAMS; assay type: cell-based, S. aureus; conditions: Staphylococcus aureus
Procedure: as §1

[3] = test system: E. faecalis ATCC 29212 (Efs 12); test: MIC, broth microdilution, Efs 12; assay type: cell-based; conditions: for MIC: Enterococcus faecalis
Procedure: as §1

[4] = test system: S. aureus ATCC 700699 (Sa 99); test: MIC, broth microdilution, Sa 99; assay type: cell-based; conditions: for MIC: Staphylococcus aureus
Procedure: as §1

[5] = test system: E. faecium ATCC 700221 (Efm 21); test: MIC, broth microdilution, Efm 21; assay type: cell-based; conditions: Enterococcus faecium, ATCC700221, Table 1, HT series; read-out: Minimum inhibitory concentration (MIC) Efm 21
Procedure: as §1

[6] = test system: S. aureus subsp. aureus Rosenbach BAA-1717 (Sa USA 300); test: MIC, broth microdilution, Sa USA 300; assay type: cell-based; conditions: Staphylococcus aureus
Procedure: as §1

[7] = test system: B. subtilis ATCC 6633 (Bs); test: MIC, broth microdilution, Bs; assay type: cell-based; conditions: Bacillus subtilis, ATCC6633; Table 1, HT series; read-out: Minimum inhibitory concentration (MIC) Bs
Procedure: as §1

[8] = test system: S. aureus subsp. aureus Rosenbach ATCC 25904 (SA Newman); test: MIC, broth microdilution, SA Newman; assay type: cell-based; conditions: for MIC: Staphylococcus aureus, read-out: Minimum inhibitory concentration (MIC) Sa Newman
Procedure: as §1

[9] = test system: S. aureus ATCC 25923 (Sa 23); test: MIC, broth microdilution, Sa 23; assay type: cell-based; conditions: for MIC: Staphylococcus aureus
Procedure: as §1

[10] = test system: E. faecalis ATCC 51299 (Efs 99); test: MIC, broth microdilution, Efs 99; assay type: cell-based; conditions: Enterococcus faecalis, ATCC51299; Table 1, HT series; read-out: Minimum inhibitory concentration (MIC) Efs 99
Procedure: as §1

[11] = test system: S. aureus ATCC 33592 (Sa 92); test: MIC, broth microdilution, Sa 92; assay type: cell-based; conditions: Staphylococcus aureus
Procedure: as §1

[12] = test system: S. aureus ATCC BAA-2312 (Sa 12); test: MIC, broth microdilution, Sa 12; assay type: cell-based; conditions: Staphylococcus aureus
Procedure: as §1

[13] = test system: S. aureus ATCC 33591 (Sa 91); test: MIC, broth microdilution, Sa 91; assay type: cell-based; conditions: for MIC: Staphylococcus aureus
Procedure: as §1

[14] = test system: S. aureus LAC MRSA (Sa LAC); test: MIC, broth microdilution, Sa LAC; assay type: cell-based; conditions: Staphylococcus aureus, read-out: Minimum inhibitory concentration (MIC) Sa LAC
Procedure: as §1

[15] = ATCC700296, Table 1, HT series, read-out: Minimum inhibitory concentration (MIC) Se
[16] = Table 1, HT series, read-out: Minimum inhibitory concentration (MIC) Sa UAMS
[17] = ATCC29212, Table 1, HT series, replicates from different days separated by comma, read-out: Minimum inhibitory concentration (MIC) Efs 12
[18] = ATCC700699, Table 1, HT series, replicates from different days separated by comma, read-out: Minimum inhibitory concentration (MIC) Sa 99
[19] = Table 1, HT series, read-out: Minimum inhibitory concentration (MIC) SA USA 300
[20] = ATCC25923, Table 1, HT series, replicates from different days separated by comma, read-out: Minimum inhibitory concentration (MIC) Sa 23
[21] = ATCC33592, Table 1, HT series, read-out: Minimum inhibitory concentration (MIC) Sa 92
[22] = ATCCBAA2312, Table 1, HT series, read-out: Minimum inhibitory concentration (MIC) Sa 12
[23] = ATCC33591, Table 1, HT series, read-out: Minimum inhibitory concentration (MIC) Sa 91
[24] = Table 1, HT series, replicates from different days separated by comma

Oc1ccc(-c2nc(-c3ccc(Cl)c(Cl)c3)cs2)cc1O [Compound 31, 4-(4-(3,4-dichlorophenyl)thiazol-2-yl)benzene-1,2-diol]
16 µg/mL: MIC [3, 17] | MIC [5] | MIC [7] | MIC [10]
4 µg/mL: MIC [1, 15] | MIC [2, 16] | MIC [4, 18] | MIC [6, 19] | MIC ([8]; Table 1, HT series) | MIC [9, 20] | MIC [11, 21] | MIC [12, 22] | MIC [13, 23]

Oc1ccc(-c2nc(-c3ccc(Cl)cc3Cl)cs2)cc1 [Compound 34, 4-(4-(2,4-dichlorophenyl)thiazol-2-yl)phenol]
8 µg/mL: MIC [3, 17] | MIC [5] | MIC [10]
4 µg/mL: MIC [1, 15] | MIC [2, 16] | MIC [4, 18] | MIC [6, 19] | MIC [7] | MIC ([8]; Table 1, HT series) | MIC [9, 20] | MIC [11, 21] | MIC [12, 22] | MIC [13, 23]

Oc1ccc(-c2nc(-c3cccc(Cl)c3)cs2)cc1 [Compound 38, 4-(4-(3-chlorophenyl)thiazol-2-yl)phenol]
4 µg/mL: MIC [1, 15] | MIC [2, 16] | MIC [4, 18] | MIC [6, 19] | MIC [7] | MIC ([8]; Table 1, HT series) | MIC [9, 20] | MIC [11, 21] | MIC [12, 22] | MIC [13, 23]
8 µg/mL: MIC [3, 17] | MIC [5] | MIC [10]

Oc1ccc(-c2nc(-c3ccc(C(F)(F)F)cc3)cs2)cc1 [Compound 39, 4-(4-(4(trifluoromethyl)phenyl)thiazol-2-yl)phenol]
> 32 µg/mL: MIC [3, 17] | MIC [10]
4 µg/mL: MIC [2, 16] | MIC [4, 18] | MIC [6, 19] | MIC [7] | MIC ([8]; Table 1, HT series) | MIC [11, 21] | MIC [13, 23]
32 µg/mL: MIC [5]
2 µg/mL: MIC [1, 15] | MIC [9, 20] | MIC [12, 22]

Oc1ccc(-c2nc(-c3ccc(F)c(Cl)c3)cs2)cc1O [Compound 21, 4-(4-(3-chloro-4-fluorophenyl)thiazol-2-yl)benzene-1,2-diol]
16 µg/mL: MIC [3, 17] | MIC [5] | MIC [7] | MIC [10]
4 µg/mL: MIC [2, 16] | MIC [6, 19] | MIC ([8]; Table 1, HT series) | MIC [13, 23]
8 µg/mL: MIC [1, 15] | MIC [4, 18] | MIC [9, 20] | MIC [11, 21] | MIC [12, 22]

Oc1ccc(-c2nc(-c3ccc(Cl)c(Cl)c3)cs2)cc1 [Compound 41, 4-(4-(3,4-dichlorophenyl)thiazol-2-yl)phenol]
2 µg/mL: MIC [2, 16] | MIC [3, 17] | MIC [5] | MIC ([8]; Table 1, HT series) | MIC [10]
1 µg/mL: MIC [1, 15] | MIC [4, 18] | MIC [6, 19] | MIC [9, 20] | MIC [11, 21] | MIC [12, 22] | MIC [13, 23]
4 µg/mL: MIC [7]

CN[C@H](CC(C)C)C(=O)N[C@H]1C(=O)N[C@@H](CC(N)=O)C(=O)N[C@H]2C(=O)N[C@H]3C(=O)N[C@H](C(=O)N[C@H](C(=O)O)c4cc(O)cc(O)c4-c4cc3ccc4O)[C@H](O)c3ccc(c(Cl)c3)Oc3cc2cc(c3O[C@@H]2O[C@H](CO)[C@@H](O)[C@H](O)[C@H]2O[C@H]2C[C@](C)(N)[C@H](O)[C@H](C)O2)Oc2ccc(cc2Cl)[C@H]1O [Vanc., Vancomycin, reference compound]
2 µg/mL: MIC ([1]; ATCC700296, read-out: Minimum inhibitory concentration (MIC) Se) | MIC ([2]; read-out: Minimum inhibitory concentration (MIC) Sa UAMS) | MIC ([3]; ATCC29212, read-out: Minimum inhibitory concentration (MIC) Efs 12, Table 1, HT series, replicates from different days separated by comma) | MIC ([4]; ATCC700699, read-out: Minimum inhibitory concentration (MIC) Sa 99, Table 1, HT series, replicates from different days separated by comma) | MIC [8] | Minimum inhibitory concentration (MIC) Sa Newman ([8]; Table 2, HTM series) | MIC ([11]; ATCC33592, read-out: Minimum inhibitory concentration (MIC) Sa 92, Table 2, HTM series) | MIC ([13]; ATCC33591, read-out: Minimum inhibitory concentration (MIC) Sa 91) | Minimum inhibitory concentration (MIC) Sa 91 ([13]; Table 2, HTM series)
4 µg/mL: MIC ([3]; ATCC29212, read-out: Minimum inhibitory concentration (MIC) Efs 12, Table 2, HTM series) | MIC ([4]; ATCC700699, read-out: Minimum inhibitory concentration (MIC) Sa 99, Table 2, HTM series)
1 µg/mL: MIC ([2]; read-out: Minimum inhibitory concentration (MIC) Sa UAMS-1) | MIC ([6]; read-out: Minimum inhibitory concentration (MIC) Sa USA 300) | MIC [14] | MIC ([9]; ATCC25923, read-out: Minimum inhibitory concentration (MIC) Sa 23) | Minimum inhibitory concentration (MIC) Sa 23 ([9]; Table 2, HTM series) | MIC ([11]; ATCC33592, read-out: Minimum inhibitory concentration (MIC) Sa 92, Table 1, HT series) | MIC ([12]; ATCCBAA2312, read-out: Minimum inhibitory concentration (MIC) Sa 12, Table 1, HT series)
0.5 µg/mL: MIC ([12]; ATCCBAA2312, read-out: Minimum inhibitory concentration (MIC) Sa 12, Table 2, HTM series)

Oc1ccc(-c2nc(-c3ccc(Cl)cc3Cl)cs2)cc1O [Compound 6, 4-(4-(2,4-dichlorophenyl)thiazol-2-yl)benzene-1,2-diol]
8 µg/mL: MIC [2, 16] | MIC ([14]; Table 1, HT series) | MIC [11, 21] | MIC [12, 22]
16 µg/mL and 2 µg/mL and 8 µg/mL: Minimum inhibitory concentration (MIC) Efs 12 [3, 24]
4 µg/mL: MIC ([8]; Table 1, HT series) | MIC [13, 23]
2 µg/mL: MIC [4, 18] | MIC [9, 20]
2, 2, 2 μg/mL: Minimum inhibitory concentration (MIC) Sa 99 [4, 24] | Minimum inhibitory concentration (MIC) Sa 23 [9, 24]
